# According to patent US20180224430A1, “Method of Estimating the Incidence of In Vivo Reactions to Chemical or Biological Agents Using In Vitro Experiments” (Coyne Scientific, LLC, priority 2015, published 2018):
# Tests used:
# [1] = cited from earlier work
# [2] = system: cardiomyocytes derived from stem cells (differentiated induced pluripotent stem cells); assay: In vitro assay with Endpoint A (causally associated with cardiomyopathy) on stem-cell-derived cardiomyocytes from 100 donors; assay type: cell-based, human
# Experimental: An in vitro assay is then identified whose endpoint—referred to herein as Endpoint A—includes one that is causally associated with one of the cardiotoxic effects of doxorubicin: cardiomyopathy. Concentrations of doxorubicin as prescribed by the in vitro assay's protocol are prepared in a concentration that corresponds to doses of 500 mg and 600 mg administered in vivo.
# In vitro tests are conducted at these concentrations on a representative sample of cardiomyocytes derived from stem cells (the cardiomyocytes are differentiated induced pluripotent stem cells) originating from a sample of 100 donors, and then the donors are arrayed in order of ascending scores on Endpoint A.
# The “Reaction Threshold Prediction Model” is selected as the mathematical transform in their procedure. It is noted from the doxorubicin clinical cardiotoxicity data mentioned above that 12% of the clinical trial participants experienced cardiomyopathy when treated at the 500 mg dose level. Using the in vitro test results above, the Endpoint A score is determined that is associated with the 88th Percentile member of the in vitro cohort of 100 donors (88 representing 100% minus the 12% of the sample in vivo who experienced cardiomyopathy following treatment with a 500 mg dose). The Endpoint A score reads 70 units.
# Next, the in vitro assay of doxorubicin is repeated, with a concentration corresponding to a 600 mg dose administered in vivo, on a representative sample of cardiomyocytes derived from stem cells originating from a sample of 100 donors, and then the donors are arrayed in order of ascending scores on Endpoint A. This time, the Endpoint A score is detected for the donor at the 76th Percentile (76 representing 100% minus the […] of the sample in vivo who experienced cardiomyopathy following treatment with a 600 mg dose). This time, the Endpoint A score reads 65 units. […]
structure (smiles),measurement,setting,value
COc1cccc2c1C(=O)c1c(O)c3c(c(O)c1C2=O)C[C@@](O)(C(=O)CO)C[C@@H]3O[C@H]1C[C@H](N)[C@H](O)[C@H](C)O1 [doxorubicin],clinical trial participants who experienced cardiomyopathy,[1]; 500 mg dose level,12%
same,sample in vivo who experienced cardiomyopathy,[1]; 600 mg dose,23%
same,Endpoint A score,"[2]; concentration corresponding to 500 mg dose, 88th percentile member of 100 donors",70 units
same,Endpoint A score,"[2]; concentration corresponding to 600 mg dose, donor at 76th percentile of 100 donors",65 units
same,Endpoint A score approximating threshold of impact (presumed toxicity threshold),[2]; leads to incidences of cardiomyopathy in the range of 10 to 25 percent,65-70
